Data taken from publication PMC6475383 (Proceedings of the National Academy of Sciences of the …, 2019).

Key:
[1] = system: classical complement pathway; experiment: Wieslab classical pathway assay in human serum; assay type: biochemical; details: up to 100 µM
[2] = system: lectin complement pathway; experiment: Wieslab lectin pathway assay in human serum; assay type: biochemical; details: up to 100 µM
[3] = system: receptors, ion channels, kinases, and proteases; experiment: Broad assay panel; details: up to 10 µM
AP activation in plasma = experiment: LPS-induced AP activation in mice; assay type: in vivo, C57BL/6J mice; details: 30 mg/kg oral, 3.5 h after i.p. LPS
[4] = system: KRN/I-Ag7 serum transfer-induced arthritis; experiment: KRN arthritis model; assay type: in vivo, C57BL/6 mice
[5] = system: passive Heymann nephritis; experiment: Passive Heymann nephritis; assay type: in vivo, Sprague-Dawley rats; details: rats
[6] = system: C3 convertase activity in serum of C3G patients; experiment: Inhibition of C3 cleavage in C3G patient serum; assay type: biochemical; details: patient serum mixed with normal human serum, Mg2+-EGTA
sheep erythrocytes = experiment: C3G patient serum-induced hemolysis of sheep erythrocytes; assay type: cell-based; details: 0.15 µM, 20% patient serum, EGTA
PNH erythrocytes [7] = experiment: C3-opsonization of PNH erythrocytes; assay type: cell-based, human; details: acidified serum, 1 µM, flow cytometry
PNH erythrocytes [8] = experiment: Ex vivo hemolysis of PNH erythrocytes
[9] = prophylactic and therapeutic dosing, end of study

SMILES: CCO[C@H]1CCN(Cc2c(OC)cc(C)c3[nH]ccc23)[C@H](c2ccc(C(=O)O)cc2)C1 [LNP023]
- inhibition of classical complement pathway activation [1]: no inhibition
- inhibition of lectin complement pathway activation [2]: no inhibition
- effects in a broad assay panel of receptors, ion channels, kinases, and proteases [3]: no significant effects
- complement activation in plasma (C3d/iC3b) after LPS (AP activation in plasma): effectively blocked complement activation
- disease protection ([4]; mice, 60 mg/kg b.i.d. oral): Full disease protection
- disease protection ([4]; mice, 180 mg/kg b.i.d. oral): Full disease protection
- overall clinical score ([4]; mice, 20, 60, and 180 mg/kg b.i.d. oral): highly efficacious
- complement activation in the joints (Ba, C3d, C5a) ([4]; mice, all doses (20, 60, 180 mg/kg b.i.d.)): significantly inhibited complement activation
- joint histology: inflammatory cell infiltration, bone erosion, proteoglycan loss ([4]; mice, all treated animals, after 6 d of treatment): strongly blocked
- glomerular C3 deposition ([5]; after compound treatment): near-complete inhibition of complement activation
- glomerulopathy [5, 9]: greatly attenuate
- overall histopathology score [5, 9]: significantly improve
- tubular degeneration [5, 9]: prevent tubular degeneration
- disease progression after onset of proteinuria ([5]; therapeutic dosing from day 6): immediately halted further disease progression
- C3 cleavage in C3G patient sera [6]: blocked abnormal C3 cleavage
- C3G serum-induced hemolysis of sheep erythrocytes (sheep erythrocytes): potently blocked hemolysis
- C3 deposition on the surface of CD59-negative erythrocytes (PNH erythrocytes [7]): able to block C3 deposition
- IC50 (PNH erythrocytes [8]; Homo sapiens, Erythrocyte, 24 h, read-out: IC50 lysis of PNH erythrocytes): 400 nM
- extent of inhibition of hemolysis of PNH erythrocytes (PNH erythrocytes [8]; dose-response, acidified NHS, FACS): full inhibition
